According to publication PMC6222558, “Synthesis and Evolution of Berberine Derivatives as a New Class of Antiviral Agents against Enterovirus 71 through the MEK/ERK Pathway and Autophagy” (Molecules : A Journal of Synthetic Chemistry and Natural …, 2018):

What was measured:
EV71-induced CPE = test: CPE assay with microscopy and crystal violet staining; assay type: cell-based, enterovirus 71 (EV71); settings: 20 μM; Vero cells; better than that of BBR
Protocol: Furthermore, microscopy and crystal violet staining was used to further investigation the anti-EV71 effect of 2d with CPE (cytopathic effect) assay.
(§1) The anti-EV71 activities of all tested compounds were detected by the virus-induced CPE assay. Briefly, cells (3 × 10^4 cells/well) were plated into 96-well culture plates and incubated for 16 h. Then, remove the medium and infected cells with EV71 of 100 × TCID50 (50% tissue culture infective doses) in serum-free medium for 1 h at 37 °C. After that, the unbound viruses were removed and various concentrations of tested compounds were supplemented for incubation of another 72 h. […] TC50 defined as the concentration that leads to the 50% of CPE which determined by the same method in 72 h. In addition, the cells were stained the cells were colored with 0.5% crystal violet in 20% ethanol for 15 min at room temperature and the cells were imaged after rinsed with PBS.
Figure 2 The anti-EV71 effect of compound 2d in Vero cells with BBR as a positive control. (A) 2d reduced the EV71-induced CPE. Cells were examined using a microscopy (×40); (B) 2d reduced the EV71-induced CPE. Cells were examined using crystal violet staining; (C) 2d reduced the expression of EV71 VP1 RNA by one-step qRT-PCR assay. ** p < 0.001 * p < 0.05; (D) 2d reduced the expression of EV71 VP1 protein by western blot assay.

[1] = system: EV71-induced autophagy (AKT, JNK, PI3KIII, LC3II, Beclin-1); test: Western blot of autophagy proteins in EV71-infected Vero cells; assay type: cell-based, African green monkey; settings: EV71 H, MOI = 0.1; 24 h treatment
Description: EV71 infection triggers autophagy, which provides a support for EV71 replication. Both JNK and PI3KIII proteins as upstream activators, play important roles in regulating autophagy, and inhibition of corresponding signaling pathway could down-regulate autophagy. Otherwise, AKT, as an inhibitor of autophagy factor, could inhibit autophagy with its activation. To further understand whether 2d still affected autophagy after structure modification, the inhibition of activation AKT and phosphorylation of JNK and PI3KIII proteins were also carried out using BBR as a reference.
Cells were lysed in the M-PER mammalian protein extraction reagent (Thermo, Rockford, IL, USA) containing halt protease inhibitor single-use cocktail (Thermo). The protein concentration was determined by BCA Protein Assay Kit (Thermo). Equal amount of samples (15 μg proteins) were denatured and applied to sodium dodecyl sulfate-polyacrylamide gel electrophoresis (SDS-PAGE), and then electrophoresis products were transferred to a polyvinylidenefluoride (PVDF) film and blocked by 5% (w/v) milk or BSA at room temperature. An hour later, PVDF membranes were incubated at room temperature with specific primary antibody. After a standard washing, membranes were incubated with horse radish peroxidase (HRP)-labeled secondary antibody. The signals were detected using ECL detection kit (GE Healthcare Life Sciences, Pittsburgh, PA, USA). The primary antibodies used in the experiment included β-actin, p-p44/p42 MAPK, p44/p42 MAPK, p-MEK, MEK, p-JNK, JNK, p-AKT, AKT, PI3KIII, LC3B, Beclin-1 (Cell Signaling Technology, Danvers, MA, USA), and EV71-VP1 (Abnova, Taibei, China). HRP-labeled secondary antibodies included goat anti-rabbit and anti-mouse HRP-labeled antibodies (Cell Signaling Technology).
Figure 4 Compound 2d inhibits EV71-induced autophagy. Vero cells were mock-infected or infected with EV71 (H, MOI = 0.1) for 1 h. The cells were then treated with compound 2d and BBR for 24 h. The cells were harvested and proteins were examined by western blot.

[2] = system: EV71 H strain (VR-1432, genotype C2); test: CPE inhibition assay for anti-EV71, H strain; assay type: cell-based, enterovirus 71 (EV71); settings: Enterovirus A, EV71; Vero cells; CPE; calculated on the organic part; n = 3; read-out: H Strain IC50
In short: (§2)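 Vero cells infected with 100 × TCID50 EV71 for 1 h at 37 °C in serum-free medium, unbound virus removed, then compounds added for 72 h. IC50 from inhibition of virus-induced CPE; TC50 as concentration giving 50% CPE at 72 h, with selectivity index; crystal violet staining for imaging.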

[3] = system: EV71 BrCr strain (VR-1775, genotype A); test: CPE inhibition assay for anti-EV71, BrCr strain; assay type: cell-based, enterovirus 71 (EV71); settings: Enterovirus A, EV71; Vero cells; CPE; calculated on the organic part; n = 3; read-out: BrCr Strain IC50
In short: as §2

[4] = system: four different genotype enterovirus 71 (EV71) strains; test: CPE assay, summary over the four EV71 strains; assay type: cell-based; settings: Enterovirus A, EV71, read-out: IC50 values against all tested EV71 strains
Protocol: Thus, all newly synthesized BBR analogues were screened for their anti-EV71 potencies in African green monkey kidney (Vero) cells taking BBR as the positive control. EV71 strains used in the present study include different genotype strains, such as H strain (VR-1432, genotype C2), BrCr strain (VR-1775, genotype A), and JS-52 and SHZH98 (genotype C4). The potency against EV71 strains above mentioned of each tested compound was evaluated by the combination of its IC50 and selectivity index (SI) value as the important therapeutic indication.
as §1

In the case of `COc1ccc2cc3[n+](cc2c1OCC(=O)OCc1ccccc1)CCc1cc2c(cc1-3)OCO2` [2d, 2,3-Methylenedioxy-9-benzyloxyformylmethylenoxy-10-methoxyprotoberberine chloride], the “reduction of EV71-induced CPE” value (EV71-induced CPE) is reported as “significantly reduce the EV71-induced CPE”, the AKT activation [1] is reported as “activate AKT” and the “LC3II (marker for autophagy)” value [1] is reported as “decreased”. The “expression of Beclin-1” value [1] was “could not affect the expression of Beclin-1”, the “phosphorylation of JNK and PI3KIII proteins” value [1] was “inhibit the phosphorylation of JNK and PI3KIII proteins” and the IC50 [2] was 12.4 µM. The IC50 [3] was 8.52 µM and the IC50 [4] was 7.12 to 14.8 µM.
